Data: PubChem BioAssay (NCI)
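All cell lines were grown in 96-well plates and treated with compound for 48 hours. GI50 = concentration required for 50% inhibition of growth. Definition used: TGI = concentration required for complete inhibition of growth.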

Assays:
Assay in all cases: DTP human tumour cell line panel, 48 h
[1] = test system: SK-MEL-2 melanoma
[2] = test system: MALME-3M melanoma
[3] = test system: KM12 colon
[4] = test system: NCI-H522 lung
[5] = test system: NCI-H460 lung
[6] = test system: UACC-257 melanoma
[7] = test system: LOX IMVI melanoma
[8] = test system: MDA-MB-231 breast
[9] = test system: NCI-H226 lung
[10] = test system: T-47D breast
[11] = test system: NCI-H23 lung
[12] = test system: HS 578T breast
[13] = test system: HCC-2998 colon
[14] = test system: M14 melanoma
[15] = test system: SW-620 colon
[16] = test system: MOLT-4 leukemia
[17] = test system: SNB-75 CNS
[18] = test system: HOP-92 NSCLC
[19] = test system: RXF 393 renal
[20] = test system: HT29 colon
[21] = test system: BT-549 breast
[22] = test system: SF-295 CNS
[23] = test system: U251 CNS
[24] = test system: SR leukemia
[25] = test system: SN12C renal
[26] = test system: UACC-62 melanoma
[27] = test system: PC-3 prostate
[28] = test system: A549 NSCLC
[29] = test system: EKVX NSCLC

`COc1ccccc1[As]=[As]c1ccccc1OC` (stereo not drawn) showed a GI50 [1] of 157 nM, a TGI [1] of 300 nM and a GI50 [2] of 44.3 nM. For the same compound, the TGI [2] was 145 nM, the GI50 [3] was 110 nM and the TGI [3] was 240 nM. For the same compound, the GI50 [4] was 16.5 nM, the TGI [4] was 37.6 nM and the GI50 [5] was 96 nM. For the same compound, the TGI [5] was 334 nM, the GI50 [6] was 77.5 nM and the TGI [6] was 218 nM. For the same compound, the GI50 [7] was 38.4 nM, the TGI [7] was 136 nM and the GI50 [8] was 56.4 nM. For the same compound, the TGI [8] was 182 nM, the GI50 [9] was 72.3 nM and the TGI [9] was 210 nM. The GI50 [10] was 36.6 nM, the TGI [10] was 199 nM and the GI50 [11] was 65.3 nM. It also gave a TGI [11] of 204 nM, a GI50 [12] of 37.8 nM and a TGI [12] of 334 nM. For the same compound, the GI50 [13] was 78.5 nM, the TGI [13] was 218 nM and the GI50 [14] was 40.7 nM. The TGI [14] was 147 nM, the GI50 [15] was 18.2 nM and the TGI [15] was 40.3 nM. The GI50 [16] was 38.2 nM, the TGI [16] was 204 nM and the GI50 [17] was 30.5 nM. For the same compound, the TGI [17] was 130 nM, the GI50 [18] was 102 nM and the TGI [18] was 228 nM. The GI50 [19] was 25.7 nM, the TGI [19] was 64.4 nM and the GI50 [20] was 40.5 nM. The TGI [20] was 174 nM, the GI50 [21] was 58.2 nM and the TGI [21] was 182 nM. It also gave a GI50 [22] of 104 nM, a TGI [22] of 264 nM and a GI50 [23] of 14.5 nM. It also gave a TGI [23] of 31.1 nM, a GI50 [24] of 27.7 nM and a TGI [24] of 70.7 nM. It also gave a GI50 [25] of 48.9 nM, a TGI [25] of 179 nM and a GI50 [26] of 66.3 nM. It also gave a TGI [26] of 224 nM, a GI50 [27] of 61.9 nM and a TGI [27] of 195 nM. The GI50 [28] was 97.3 nM, the TGI [28] was 289 nM and the GI50 [29] was 120 nM. It also gave a TGI [29] of 271 nM.
